Source: patent publication US10899754B2, “Modulators of indoleamine 2,3-dioxygenase” (GLAXOSMITHKLINE INTELLECTUAL PROPERTY DEVELOPMENT LIMITED, priority 2016, dated 2021)

How the values were obtained:
[1] = target: indoleamine 2, 3-dioxygenase (IDO1) (Homo sapiens, UniProt P14902); assay: IDO1 PBMC RapidFire MS assay (kynurenine detection by mass spectrometry); format: cell-based; design: to induce the expression of indoleamine 2, 3-dioxygenase (IDO1); host or cells: human PBMC stimulated with IFN-gamma and LPS; conditions: human PBMC stimulated with IFN-γ and LPS, 2 days, pIC50, read-out: PBMC PXC50 (converted)
Chain of indoleamine 2, 3-dioxygenase (IDO1) (P14902 whole entry): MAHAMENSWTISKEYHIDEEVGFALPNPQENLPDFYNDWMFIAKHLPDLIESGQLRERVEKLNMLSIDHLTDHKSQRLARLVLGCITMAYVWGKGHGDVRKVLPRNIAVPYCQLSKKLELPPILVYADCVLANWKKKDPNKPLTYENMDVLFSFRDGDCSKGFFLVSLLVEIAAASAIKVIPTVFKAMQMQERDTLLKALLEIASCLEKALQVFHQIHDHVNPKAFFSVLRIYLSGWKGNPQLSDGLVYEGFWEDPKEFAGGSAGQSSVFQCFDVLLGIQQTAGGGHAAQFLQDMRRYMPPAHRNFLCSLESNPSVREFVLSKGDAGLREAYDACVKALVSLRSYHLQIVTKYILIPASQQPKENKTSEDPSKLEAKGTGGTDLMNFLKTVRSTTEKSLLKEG
Protocol: IDO1 PBMC RapidFire MS Assay
(§1) Compounds of the present invention were tested via high-throughput cellular assays utilizing detection of kynurenine via mass spectrometry and cytotoxicity as end-points. For the mass spectrometry and cytotoxicity assays, human peripheral blood mononuclear cells (PBMC) (PB003F; AllCells®, Alameda, Calif.) were stimulated with human interferon-γ (IFN-γ) (Sigma-Aldrich Corporation, St. Louis, Mo.) and lipopolysaccharide from Salmonella minnesota (LPS) (Invivogen, San Diego, Calif.) to induce the expression of indoleamine 2, 3-dioxygenase (IDO1). Compounds with IDO1 inhibitory properties decreased the amount of kynurenine produced by the cells via the tryptophan catabolic pathway. Cellular toxicity due to the effect of compound treatment was measured using CellTiter-Glo® reagent (CTG) (Promega Corporation, Madison, Wis.), which is based on luminescent detection of ATP, an indicator of metabolically active cells.
(§2) In preparation for the assays, test compounds were serially diluted 3-fold in DMSO from a typical top concentration of 1 mM or 5 mM and plated at 0.5 μL in 384-well, polystyrene, clear bottom, tissue culture treated plates with lids (Greiner Bio-One, Kremsmünster, Austria) to generate 11-point dose response curves. Low control wells (0% kynurenine or 100% cytotoxicity) contained either 0.5 μL of DMSO in the presence of unstimulated (−IFN-γ/−LPS) PBMCs for the mass spectrometry assay or 0.5 μL of DMSO in the absence of cells for the cytotoxicity assay, and high control wells (100% kynurenine or 0% cytotoxicity) contained 0.5 μL of DMSO in the presence of stimulated (+IFN-γ/+LPS) PBMCs for both the mass spectrometry and cytotoxicity assays.
(§3) Frozen stocks of PBMCs were washed and recovered in RPMI 1640 medium (Thermo Fisher Scientific, Inc., Waltham, Mass.) supplemented with 10% v/v heat-inactivated fetal bovine serum (FBS) (Thermo Fisher Scientific, Inc., Waltham, Mass.), and 1× penicillin-streptomycin antibiotic solution (Thermo Fisher Scientific, Inc., Waltham, Mass.). The cells were diluted to 1,000,000 cells/mL in the supplemented RPMI 1640 medium. 50 μL of either the cell suspension, for the mass spectrometry assay, or medium alone, for the cytotoxicity assay, were added to the low control wells, on the previously prepared 384-well compound plates, resulting in 50,000 cells/well or 0 cells/well respectively. IFN-γ and LPS were added to the remaining cell suspension at final concentrations of 100 ng/ml and 50 ng/ml respectively, and 50 μL of the stimulated cells were added to all remaining wells on the 384-well compound plates. The plates, with lids, were then placed in a 37° C., 5% CO2 humidified incubator for 2 days.
(§4) Following incubation, the 384-well plates were removed from the incubator and allowed to equilibrate to room temperature for 30 minutes. For the cytotoxicity assay, CellTiter-Glo® was prepared according to the manufacturer's instructions, and 40 μL were added to each plate well. After a twenty minute incubation at room temperature, luminescence was read on an EnVision® Multilabel Reader (PerkinElmer Inc., Waltham, Mass.). For the mass spectrometry assay, 10 μL of supernatant from each well of the compound-treated plates were added to 40 μL of acetonitrile, containing 10 μM of an internal standard for normalization, in 384-well, polypropylene, V-bottom plates (Greiner Bio-One, Kremsmünster, Austria) to extract the organic analytes. Following centrifugation at 2000 rpm for 10 minutes, 10 μL from each well of the acetonitrile extraction plates were added to 90 μL of sterile, distilled H2O in 384-well, polypropylene, V-bottom plates for analysis of kynurenine and the internal standard on the RapidFire 300 (Agilent Technologies, Santa Clara, Calif.) and 4000 QTRAP MS (SCIEX, Framingham, Mass.). MS data were integrated using Agilent Technologies' RapidFire Integrator software, and data were normalized for analysis as a ratio of kynurenine to the internal standard. […]

[2] = tested on: human peripheral blood mononuclear cells (PBMC); assay: PBMC cytotoxicity assay (CellTiter-Glo); format: cell-based; conditions: 2 days, pCC50
Protocol: as §1, §2, §3, §4

SMILES | IC50 [1] | PBMC TOX PXC50 [2]
CC(C)CN(c1ccc(C(C)NC(N)=O)cc1Nc1nc(C(F)(F)F)ns1)C1CCOCC1 (stereo not drawn) [example 249, (1-{4-[(2-methylpropyl)(oxan-4-yl)amino]-3-{[3-(trifluoromethyl)-1,2,4-thiadiazol-5-yl]amino}phenyl}ethyl) urea] | 20 nM | <5
CC(C)CN(c1ccc([C@H](C)CC(=O)O)cc1Nc1n[nH]c(C#N)n1)C1CCCCC1 [Example 83, (R)-3-(3-((5-cyano-1H-1,2,4-triazol-3-yl)amino)-4-(cyclohexyl(isobutyl)amino)phenyl)butanoic Acid] | 7.94 nM | <5
CO[C@H]1CC[C@@H](N(CC(C)C)c2ccc([C@H](C)CC(=O)O)cc2Nc2nc(Cl)ns2)CC1 [Example 48, (R)-3-(3-((3-chloro-1,2,4-thiadiazol-5-yl)amino)-4-(isobutyl((1s,4S)-4-methoxycyclohexyl)amino)phenyl)butanoic Acid] | 1 nM | <5
CC(C)CN(CC(C)C)c1ccc([C@H](C)CC(=O)O)cc1Nc1nc(C(F)(F)F)cn1COCC[Si](C)(C)C [example 220, (3R)-3-{4-[bis(2-methylpropyl)amino]-3-{[4-(trifluoromethyl)-1-{[2-(trimethylsilyl)ethoxy]methyl}-1H-imidazol-2-yl]amino}phenyl}butanoic acid] | 398 nM | <5
CO[C@H]1CC[C@H](N(CC(C)C)c2ccc([C@H](C)CC(=O)O)cc2Nc2n[nH]c(C3CC3)n2)CC1 (racemic) [example 221, (3RS)-3-{3-[(5-cyclopropyl-1H-1,2,4-triazol-3-yl)amino]-4-[(2-methylpropyl)[(1rs&,4rs&)-4-methoxycyclohexyl]ami-no]phenyl}butanoic acid] | 39.8 nM | <5
CC(C)CN(c1ccc([C@H](C)CC(=O)O)cc1Nc1ccc(Cl)c(Cl)n1)C1CCOCC1 [Example 33, (R)-3-(3-((5,6-Dichloropyridin-2-yl)amino)-4-(isobutyl(tetrahydro-2H-pyran-4-yl)amino)phenyl)butanoic Acid] | 6.31 nM | <5
CO[C@H]1CC[C@@H](N(CC(C)C)c2ccc([C@H](C)CC(=O)O)cc2Nc2ccc(Cl)cn2)CC1 [Example 47, (R)-3-(3-((5-chloropyridin-2-yl)amino)-4-(isobutyl((1s,4S)-4-methoxycyclohexyl)amino)phenyl)butanoic Acid] | 0.794 nM | <5
COCc1ccc(Nc2cc([C@H](C)CC(=O)O)ccc2N(CC(C)C)[C@H]2CC[C@H](OC)CC2)nc1 (racemic) [example 247, (3RS)-3-(3-{[5-(methoxymethyl)pyridin-2-yl]amino}-4-[(2-methylpropyl)[(1rs&,4rs&)-4-methoxycyclohexyl]ami-no]phenyl)butanoic acid] | 31.6 nM | <5
CC(C)CN(c1ccc([C@H](C)CC(=O)O)cc1Nc1cnc(Cl)cn1)C1CCOCC1 [Example 12, (R)-3-(3-((5-chloropyrazin-2-yl)amino)-4-(isobutyl(tetrahydro-2H-pyran-4-yl)amino)phenyl)butanoic Acid] | 1 nM | <5
CC(C)CN(c1ccc([C@H](C)CC(=O)O)cc1Nc1ccc(Cl)c(C#N)n1)C1CCOCC1 [Example 30, (R)-3-(3-((5-chloro-6-cyanopyridin-2-yl)amino)-4-(isobutyl(tetrahydro-2H-pyran-4-yl)amino)phenyl)butanoic Acid] | 7.94 nM | <5
CC(C)CN(CC(C)C)c1ccc([C@H](C)CC(=O)O)cc1Nc1nc(C(F)(F)F)c[nH]1 [Example 85, (R)-3-(4-(diisobutylamino)-3-((4-(trifluoromethyI)-1H-imidazol-2-yl)amino)phenyl)butanoic Acid] | 2.51 nM | <5
CO[C@H]1CC[C@H](N(CC(C)C)c2ccc([C@H](C)CC(=O)O)cc2Nc2n[nH]c(C(F)(F)F)n2)CC1 [Example 52] | 10 nM | <5
CC(C)CN(c1ccc([C@H](C)CC(=O)O)cc1Nc1cnc(Cl)nc1)C1CCOCC1 [Example 10, (R)-3-(3-((2-chloropyrimidin-5-yl)amino)-4-(isobutyl(tetrahydro-2H-pyran-4-yl)amino)phenyl)butanoic Acid] | 0.794 nM | <5
CC(C)CN(c1ccc([C@H](C)CC(=O)O)cc1Nc1cnc(C(N)=O)nc1)C1CCOCC1 [example 263, (3R)-3-{3-[(2-carbamoylpyrimidin-5-yl)amino]-4-[(2-methylpropyl)(oxan-4-yl)amino]phenyl}butanoic acid] | 501 nM | <5
CO[C@H]1CC[C@@H](N(CC(C)C)c2ccc([C@H](C)CC(=O)O)cc2Nc2n[nH]c(C3CC3)n2)CC1 [Example 63, (R)-3-(3-((5-cyclopropyl-1H-1,2,4-triazol-3-yl)amino)-4-(isobutyl((cis)-4-methoxycyclohexyl)amino)phenyl)butanoic Acid] | 6.31 nM | <5
CO[C@H]1CC[C@H](N(CC(C)C)c2ccc([C@H](C)CC(=O)O)cc2Nc2nc(C(F)(F)F)ns2)CC1 [Example 50, (R)-3-(4-(isobutyl((1r,4R)-4-methoxycyclohexyl)amino)-3-((3-(trifluoromethyl)-1,2,4-thiadiazol-5-yl)amino)phenyl)butanoic Acid] | 1.58 nM | <5
CO[C@H](C)CN(C[C@@H](C)OC)c1ccc([C@H](C)CC(=O)O)cc1Nc1nc(C(F)(F)F)ns1 [example 258, (3R)-3-(4-{bis[(2R)-2-methoxypropyl]amino}-3-{[3-(trifluoromethyl)-1,2,4-thiadiazol-5-yl]amino}phenyl)butanoic acid] | 79.4 nM | <5
CC(C)CN(c1ccc([C@H](C)CC(=O)O)cc1Nc1ccc(C(N)=O)nc1)C1CCOCC1 [example 239, (3R)-3-{3-[(6-carbamoylpyridin-3-yl)amino]-4-[(2-methylpropyl)(oxan-4-yl)amino]phenyl}butanoic acid] | 25.1 nM | <5
CC(C)CN(c1ccc([C@H](C)CC(=O)O)cc1Nc1n[nH]c(C(F)(F)F)n1)[C@H]1CC[C@H](O)CC1 (racemic) [example 219, (3RS)-3-{4-[(2-methylpropyl)[(1rs&,4rs&)-4-hydroxycyclohexyl]amino]-3-{[5-(trifluoromethyl)-1H-1,2,4-triazol-3-yl]amino}phenyl}butanoic acid] | 100 nM | <5
CC(C)CN(c1ccc([C@H](C)CC(=O)O)cc1Nc1ccc(Cl)c(F)n1)C1CCOCC1 [Example 14, (R)-3-(3-((5-chloro-6-fluoropyridin-2-yl)amino)-4-(isobutyl(tetrahydro-2H-pyran-4-yl)amino)phenyl)butanoic acid] | 1.26 nM | <5
CC(C)CN(CC(C)C)c1ccc(C(C)(C)CC(=O)O)cc1Nc1nc(C(F)(F)F)ns1 [Example 3, 3-(4-(diisobutylamino)-3-((3-(trifluoromethyl)-1,2,4-thiadiazol-5-yl)amino)phenyl)-3-methylbutanoic Acid] | 1.58 nM | <5
